From US8106055B2, “Substituted amide compounds” (Gruenenthal GmbH, priority 2007, dated 2012)

What was measured:
human μ opiate receptor = molecular target: T1, human μ opiate receptor (Homo sapiens, UniProt P35372); assay: Affinity for the human μ opiate receptor ([3H]-naloxone displacement, CHO-K1 receptor membrane preparation, SPA); type: binding; conditions: test concentration of 1 μM
T1 construct: purchased PerkinElmer Life Sciences, Zaventem, Belgium RB-HOM; host or cells: CHO-K1 cells (membrane preparation)
How it was run: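 Scintillation proximity binding on human μ receptor membranes from CHO-K1 cells used 1 nmol/l [3H]-naloxone over 90 min at room temperature in 50 mmol/l Tris-HCl, 0.06% BSA. Percent inhibition was recorded at 1 μM.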

[1] = molecular target: T2, bradykinin 1 receptor (B1R) of the rat (Rattus norvegicus, UniProt P97583); assay: Functional investigation on the rat bradykinin 1 receptor (B1R), Ca2+ FLIPR assay in CHO K1 rB1R cells; type: cell-based; conditions: B1R antagonism rat; test substance 10 μM; Ca2+ FLIPR, CHO K1 rB1R cells
T2 construct: expressed in transfected cells; host or cells: CHO K1 cells
T2 sequence (P97583 1-337): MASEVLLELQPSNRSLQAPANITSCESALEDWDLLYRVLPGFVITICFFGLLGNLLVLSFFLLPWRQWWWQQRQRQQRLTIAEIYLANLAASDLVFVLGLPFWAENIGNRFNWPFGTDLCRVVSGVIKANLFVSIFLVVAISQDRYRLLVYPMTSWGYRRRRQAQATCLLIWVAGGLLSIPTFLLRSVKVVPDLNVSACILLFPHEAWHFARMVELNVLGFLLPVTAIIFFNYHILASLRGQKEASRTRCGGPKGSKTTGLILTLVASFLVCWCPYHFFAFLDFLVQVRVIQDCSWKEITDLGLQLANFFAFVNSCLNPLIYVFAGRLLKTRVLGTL
How it was run: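 Cells were dye-loaded with Fluo-4 plus probenecid, then test substances added and Ca2+ influx compared with agonist control for % activation. After 10-20 min, EC80 agonist (Lys-Des-Arg9-bradykinin human; Des-Arg9-bradykinin rat) was applied; suppression gave % inhibition and IC50 values.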

T1 sequence (P35372 whole entry): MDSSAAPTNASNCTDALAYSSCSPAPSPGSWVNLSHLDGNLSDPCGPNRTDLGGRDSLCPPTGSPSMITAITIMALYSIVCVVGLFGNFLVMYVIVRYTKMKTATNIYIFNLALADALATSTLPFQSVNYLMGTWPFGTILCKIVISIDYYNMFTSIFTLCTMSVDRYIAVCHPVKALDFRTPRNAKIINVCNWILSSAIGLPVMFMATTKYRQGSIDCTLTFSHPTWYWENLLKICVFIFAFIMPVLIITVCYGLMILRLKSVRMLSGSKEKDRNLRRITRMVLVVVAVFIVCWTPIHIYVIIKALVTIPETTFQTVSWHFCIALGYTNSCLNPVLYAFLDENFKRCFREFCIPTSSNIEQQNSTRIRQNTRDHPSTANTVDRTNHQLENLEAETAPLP

Row | Compound | μ (binding on the μ opioid receptor, % inhibition) (human μ opiate receptor) [%] | B1R Ant. r [10 μM] % Inhibition [1] [%] | μ (binding on the μ opioid receptor, % inhibition) (human μ opiate receptor; 1 µM) [%]
1 | CN(C)C(CCc1ccccc1)C1CCC(CNC(=O)COC2CCN(S(=O)(=O)c3ccc(Cl)cc3)C2)CC1 (stereo not shown) [Example 557] | 26 | 29 | 
2 | CN(C)C(CCc1ccccc1)C1CCC(CNC(=O)COC2CCCN(S(=O)(=O)c3ccccc3)C2)CC1 (stereo not shown) [Example 558] | 29 | 12 | 
3 | COc1ccc(S(=O)(=O)N2CCCCC2COCC(=O)NCC2CCC(C(CCc3ccccc3)N(C)C)CC2)cc1OC (stereo not shown) [Example 559] |  | −12 | 14
4 | COc1cc(C)c(S(=O)(=O)N(CCOCC(=O)NCC2CCC(C(c3ccc(Cl)cc3)N(C)C)CC2)Cc2ccccc2)c(C)c1C (stereo not shown) [Example 560] | 22 | −5 | 
5 | COc1cc(C)c(S(=O)(=O)N2CCC(CCOCC(=O)NCCC3CCC(C(c4ccc(Cl)cc4)N(C)C)CC3)CC2)c(C)c1C (stereo not shown) [Example 561] | 26 | −12 | 
6 | COc1cc(C)c(S(=O)(=O)N(CCOCC(=O)NCC2CCC(C(CCc3ccccc3)N(C)C)CC2)Cc2ccccc2)c(C)c1C (stereo not shown) [Example 562] | 23 | 23 | 
7 | COc1cc(C)c(S(=O)(=O)N(CCOCC(=O)NCC2CCC(C(c3ccc(F)cc3)N(C)C)CC2)Cc2ccccc2)c(C)c1C (stereo not shown) [Example 563] | 25 | −16 | 
8 | COc1cc(C)c(S(=O)(=O)N2CCC(OCC(=O)NCC3CCC(C(CCc4ccccc4)N(C)C)CC3)C2)c(C)c1 (stereo not shown) [Example 565] | 20 | 104 | 
9 | COc1ccc(S(=O)(=O)N2CCC(OCC(=O)NCC3CCC(C(CCc4ccccc4)N(C)C)CC3)C2)cc1OC (stereo not shown) [Example 566] | 19 | 22 | 
10 | CN(C)C(CCc1ccccc1)C1CCC(CNC(=O)COCCN(C)S(=O)(=O)c2ccc(OC(F)(F)F)cc2)CC1 (stereo not shown) [Example 567] | 23 | 42 | 
11 | CN(C)C(c1ccc(F)cc1)C1CCC(CNC(=O)COC2CCN(S(=O)(=O)c3ccccc3)CC2)CC1 (stereo not shown) [Example 568] | 11 | 12 | 
12 | COc1cc(C)c(S(=O)(=O)N(CCOCC(=O)NCCC2CCC(C(c3ccc(Cl)cc3)N(C)C)CC2)Cc2ccccc2)c(C)c1 (stereo not shown) [Example 569] | 10 | 9 | 
13 | COc1ccc(S(=O)(=O)N2CCCCC2COCC(=O)NCC2CCC(C(CCc3ccccc3)N(C)C)CC2)cc1OC (stereo not shown) [Example 570] |  | 4 | 16
14 | COc1ccc(S(=O)(=O)N(C)CCOCC(=O)NCC2CCC(C(CCc3ccccc3)N(C)C)CC2)cc1OC (stereo not shown) [Example 571] | 14 | 15 | 
15 | COc1ccc(S(=O)(=O)N2CCCC2COCC(=O)NCC2CCC(C(CCc3ccccc3)N(C)C)CC2)cc1 (stereo not shown) [Example 572] | 29 | 62 | 
16 | CN(C)C(CCc1ccccc1)C1CCC(CNC(=O)COC2CCN(S(=O)(=O)c3ccccc3)C2)CC1 (stereo not shown) [Example 573] | 23 | 14 | 
17 | CN(C)C(CCc1ccccc1)C1CCC(CNC(=O)COC2CCN(S(=O)(=O)c3ccc(F)cc3)C2)CC1 (stereo not shown) [Example 574] | 18 | 26 | 
18 | CN(C)C(c1ccc(Cl)cc1)C1CCC(CCNC(=O)COCCN(C)S(=O)(=O)c2ccc(OC(F)(F)F)cc2)CC1 (stereo not shown) [Example 575] | 11 | 26 | 
19 | COc1cc(C)c(S(=O)(=O)N(CCOCC(=O)NCCC2CCC(C(c3ccc(Cl)cc3)N(C)C)CC2)Cc2ccccc2)c(C)c1C (stereo not shown) [Example 576] | 15 | 3 | 
20 | CN(C)C(CCc1ccccc1)C1CCC(CNC(=O)COC2CCN(S(=O)(=O)c3ccccc3)CC2)CC1 (stereo not shown) [Example 578] | 12 | 12 | 
21 | CN(C)C(CCc1ccccc1)C1CCC(CNC(=O)COCCN(C)S(=O)(=O)c2c(Cl)cccc2Cl)CC1 (stereo not shown) [Example 580] |  | 44 | 13
22 | COc1ccc(S(=O)(=O)N2CCCCC2COCC(=O)NCCC2CCC(C(c3cccc(F)c3)N(C)C)CC2)cc1OC (stereo not shown) [Example 581] |  | 8 | 9
23 | CN(C)C(c1ccc(F)cc1)C1CCC(CNC(=O)COCCC2CCN(S(=O)(=O)c3ccccc3)CC2)CC1 (stereo not shown) [Example 583] | 7 | 20 | 
24 | CN(C)C(c1ccc(Cl)cc1)C1CCC(CNC(=O)COCCC2CCN(S(=O)(=O)c3ccccc3)CC2)CC1 (stereo not shown) [Example 584] | 7 | 41 | 
25 | CN(C)C(c1ccc(F)cc1)C1CCC(CCNC(=O)COCCN(C)S(=O)(=O)c2ccc(Cl)cc2Cl)CC1 (stereo not shown) [Example 586] | 3 | 76 | 
26 | Cc1cc(C)c(S(=O)(=O)N(C)CCOCC(=O)NCCC2CCC(C(c3cccc(F)c3)N(C)C)CC2)c(C)c1 (stereo not shown) [Example 587] | −5 | 16 | 
